Data from patent publication US10548895B2, “Ligands that target Plasmodium sporozoite binding sites on CD81 and therapeutic methods using them” (American University In Cairo (AUC), priority 2014, dated 2020).
Entries after “also recorded” stand apart in the source; their conditions may differ.

How the values were obtained:
[1] = target: T1, CD81-LEL (Homo sapiens, UniProt P60033); experiment: Surface plasmon resonance binding of ligands to immobilized CD81-LEL; details: SPR; for Binding (change in response units): 3 min association; for Dissociation 1 (change in response units) / Dissociation 2 (change in response units): dissociation interval
T1 construct: A recombinant form of the CD81-LEL protein with a GST tag; gift of Dr. Shoshana Levy, Stanford University
T1 sequence (P60033 113-201 limits assumed): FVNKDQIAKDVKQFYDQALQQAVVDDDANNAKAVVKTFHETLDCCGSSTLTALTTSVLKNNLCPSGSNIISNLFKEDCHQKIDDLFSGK
Protocol: SPR analysis was performed using a Biacore T200 workstation (GE Healthcare, NJ, USA). A recombinant form of the CD81-LEL protein with a GST tag (generously provided by Dr. Shoshana Levy, Stanford University) was used to confirm, using an established experimental technique, the binding of several ligands to the protein. Briefly, 10 μM CD81-LEL-GST diluted into 10 mM Na-Acetate buffer pH 4.5 was immobilized for 15 min at a flow speed of 5 μl/min onto a CM5 sensor chip using amine-coupling (EDC-NHS), Approximately 20,000 RU of protein were immobilized on the chip. The ligands were prepared as 600 μM solutions in PBS-0.05% Tween-80 (the running buffer) and they were introduced to the protein using a pre-programmed 3 minute association and 1 minute dissociation interval.
SPR analysis was performed using a Biacore T100 workstation (GE Healthcare, NJ, USA). […] Approximately 20,000 RU of protein were immobilized on the chip. The ligands were prepared as 200 uM solutions in PBS-1% DMSO (the running buffer) and they were introduced to the protein using a pre-programmed 3 min association and 1 min dissociation interval.

[2] = target: T2, native CD81 on Raji cells (Homo sapiens, UniProt P60033); experiment: Antibody neutralizing assay: inhibition of JS-81 anti-CD81 antibody binding on Raji cells (FACS); assay type: cell-based; details: Raji cells, read-out: Inhibition of JS-81 Binding (%); for inhibition at 50 µM: 50 μM ligand; for inhibition at 100 µM: 100 μM ligand; for inhibition at 400 µM: 400 μM ligand
T2 construct: endogenous in cells; host or cells: Raji cells (human B cell line)
T2 sequence (P60033 1-236): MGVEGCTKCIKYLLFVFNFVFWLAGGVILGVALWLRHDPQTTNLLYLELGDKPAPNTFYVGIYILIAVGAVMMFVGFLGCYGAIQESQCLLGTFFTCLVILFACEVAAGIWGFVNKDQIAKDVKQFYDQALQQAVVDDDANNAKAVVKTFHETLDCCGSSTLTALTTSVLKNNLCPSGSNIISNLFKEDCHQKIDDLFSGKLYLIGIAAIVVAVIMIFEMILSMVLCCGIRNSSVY
Protocol: For antibody neutralization assay Raji cells were used, a human B cell line that expressed high amounts of CD81 on the surface (data not shown), Cells were grown in RPMI medium (10% FCS, 1% penicillin/streptomycin, 1% L-glutamine, 1% non-essential amino acids, 1% sodium pyruvate, pH 7.4, at 37° C. with 5% CO2). 2×10^5 cells were incubated with or without different concentrations (50 μM, 100 μM, 400 μM and 1 mM) of indicated inhibitor for 20 min at room temperature, subsequently 1 ul (16 ng/μl) of FITC-labeled anti CD81 antibody (BD Pharmingen, 551108) was added to the cells and incubated for 20 min (antibody titration was performed to obtain a working dilution range, data not shown). Cells were washed and analyzed by FACS (BD FACSCalibur, software: Cell Quest Pro). Mean Fluorescence Intensity MFI was calculated using Flowjo software (TreesStar, www.flowjo.com).

[3] = test system: Plasmodium falciparum; experiment: Sporozoite invasion assay, P. falciparum in HepG2-CD81 cells; assay type: cell-based
Protocol: (§1) Anopheles stephensi mosquitoes were fed on mice infected with Plasmodium yoelii 17XNL parasites. On day 14 post bloodmeal, salivary glands were harvested, homogenized, sporozoite number was determined using a hemocytometer and the indicated number of sporozoites was added to cell monolayers, Plasmodium falciparum sporozoites were generated by membrane feeding An. stephensi mosquitoes using gametocyte cultures generated in vitro.
(§2) HepG2-CD81 (14) cells were maintained in DMEM supplemented with 10% fetal calf serum and 1 mM glutamine (DMEM/FCS), mAb 2E6 was used for development assays and is directed against Plasmodium Hsp 70 (15) and mAb 2A10 is directed against the repeat region of P. falciparum CSP and was used for invasion assays.
(§3) 5×10^5 HepG2-CD81 cells were plated on collagen coated Lab-Tek wells and allowed to adhere overnight. The following day, cells were preincubated with 400 uM of compound for 30 minutes at 37° C. Controls were pre-incubated with DMSO at the same concentration in which it was found in the compound solutions. 10^5 sporozoites were added to each well and in the case of P. falciparum, incubated for 1.5 hours and scored for invasion whereas in the case of P. yoelii, incubated for 44 hours and scored for exoerythrocytic stages.

[4] = test system: Plasmodium yoelii; experiment: Sporozoite development assay, P. yoelii in HepG2-CD81 cells; assay type: cell-based; details: for effect on infection (in words): P. yoelii, HepG2-CD81
Protocol: as §1, §2, §3

[5] = test system: Plasmodium yoelii; experiment: Sporozoite infection assay, P. yoelii in Hepa1-6 cells; assay type: cell-based; details: for effect on infection (in words): P. yoelii, Hepa1-6 cells
[6] = test system: Plasmodium berghei; experiment: Sporozoite infection assay, P. berghei in Hepa1-6 cells; assay type: cell-based; details: for effect on infection (in words): P. berghei, Hepa1-6 cells
[7] = test system: Plasmodium berghei; experiment: Sporozoite infection assay, P. berghei in HepG2 cells; assay type: cell-based

Row | Binding (change in response units) [1] [response units] | Dissociation 1 (change in response units) [1] [response units] | Dissociation 2 (change in response units) [1] [response units] | inhibition at 50 µM [2] [%] | inhibition at 100 µM [2] [%] | inhibition at 400 µM [2] [%] | SMILES | effect on infection (in words) ([3]; P. falciparum) | effect on infection (in words) [4] | effect on infection (in words) [5] | effect on infection (in words) [6] | effect on infection (in words) [7] | Percent Infection ([3]; HepG2-CD81, Plasmodium falciparum, 400 uM compound) [%] | Percent Infection ([4]; HepG2-CD81, Plasmodium yoelii, 400 uM compound) [%] | Percent Infection ([5]; Hepa1-6 Cells, Plasmodium yoelii) [%] | Percent Infection ([6]; Hepa1-6 Cells, Plasmodium berghei) [%]
1 | 52.5 | 50.8 | 43 | 0 | 8 | 26 | O=C(O)/C(=C\c1ccccc1)c1ccccc1 [Ligand 40614, 2,3-diphenylprop-2-enoate] | wasn't found to enhance infection | enhance the infection | enhancing development | enhancing development | enhancing development |  |  |  | 
2 | −1.7 | 13.1 | 5.6 | 0 | 0 | 24 | Cc1cc(C)c(N)c(C(=O)O)c1 [Ligand 90444, 2-amino-3,5-dimethylbenzoate] |  | inhibit; also recorded: inhibitory effect | didn't inhibit | didn't inhibit |  | 98.7 | 44.3 | 222 | 95.6
